The inhibition is the percentage by which the read-out fell short of the control. A word on the IC50: it is the concentration needed to halve the response being measured.

This assay concerns the target recombinant human SAE enzyme (Homo sapiens (Human), UniProt Q9UBT2). Description: SAE HTRF enzyme assay. Format: biochemical. The note with it: for inhibition at 0.111 µM: Concentration 0.111 μM, read-out: Percent Inhibition; for IC50: class symbols A/B/C. The essentials: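 Sumoylation of Ubc9-GST by SAE was followed at low ATP (0.5 μM), pH 7.5, 24° C. for 105 min. Product was detected by HTRF with antibody pairs against Flag and GST tags.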
In general terms: TR-FRET usually uses a lanthanide donor and a delayed reading to cut background.

Chain of recombinant human SAE enzyme (Q9UBT2 whole entry): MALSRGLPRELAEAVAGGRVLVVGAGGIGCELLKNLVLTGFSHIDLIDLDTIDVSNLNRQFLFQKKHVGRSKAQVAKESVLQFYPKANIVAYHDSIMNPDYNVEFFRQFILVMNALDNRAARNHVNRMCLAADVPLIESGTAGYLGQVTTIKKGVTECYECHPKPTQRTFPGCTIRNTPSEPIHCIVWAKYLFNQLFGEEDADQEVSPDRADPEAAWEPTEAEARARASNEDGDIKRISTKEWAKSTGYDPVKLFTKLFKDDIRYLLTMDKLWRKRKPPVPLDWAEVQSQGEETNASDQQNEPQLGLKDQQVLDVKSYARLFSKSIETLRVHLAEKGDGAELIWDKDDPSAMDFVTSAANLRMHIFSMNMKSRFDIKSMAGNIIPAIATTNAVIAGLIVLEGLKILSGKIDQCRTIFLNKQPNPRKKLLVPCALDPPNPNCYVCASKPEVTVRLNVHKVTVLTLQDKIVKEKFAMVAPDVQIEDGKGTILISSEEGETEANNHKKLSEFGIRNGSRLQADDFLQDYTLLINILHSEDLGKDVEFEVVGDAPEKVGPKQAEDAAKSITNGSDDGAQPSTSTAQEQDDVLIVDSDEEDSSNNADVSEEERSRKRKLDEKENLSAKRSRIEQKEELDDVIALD
Chain of recombinant human SAE enzyme (Q9UBE0 whole entry partner): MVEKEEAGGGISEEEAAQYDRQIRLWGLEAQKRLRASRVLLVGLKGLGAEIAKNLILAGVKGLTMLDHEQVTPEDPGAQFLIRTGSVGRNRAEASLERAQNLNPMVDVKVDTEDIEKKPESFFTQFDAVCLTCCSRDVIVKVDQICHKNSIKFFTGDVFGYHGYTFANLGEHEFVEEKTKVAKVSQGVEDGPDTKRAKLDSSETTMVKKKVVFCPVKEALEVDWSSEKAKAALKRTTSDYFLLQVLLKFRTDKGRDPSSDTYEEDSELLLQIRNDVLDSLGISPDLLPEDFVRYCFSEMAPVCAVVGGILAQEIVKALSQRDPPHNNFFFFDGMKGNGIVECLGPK

For `NS(=O)(=O)OC[C@H]1C[C@@H](Nc2ncncc2C(=O)c2cc(Cc3cccc(I)c3)cs2)[C@@H](F)[C@@H]1O` [I-99, {(1R,2R,3R,4R)-3-fluoro-2-hydroxy-4-[(5-{[4-(3-iodobenzyl)-2-thienyl]carbonyl}pyrimidin-4-yl)amino]cyclopentyl}methyl sulfamate], the inhibition at 0.111 µM was 97% and the IC50 was below 10 nM. The corresponding values for `C=C(c1cccc(Cl)c1)c1cc(C(=O)c2cncnc2N[C@@H]2C[C@H](COS(N)(=O)=O)[C@@H](O)C2)sc1C` [I-100, [(1R,2S,4R)-4-{[5-({4-[1-(3-Chlorophenyl)vinyl]-5-methyl-2-thienyl}carbonyl)pyrimidin-4-yl]amino}-2-hydroxycyclopentyl]methyl sulfamate] are 97% and below 10 nM.

On to `NS(=O)(=O)OC[C@H]1C[C@@H](Nc2ncncc2C(=O)c2cc(Cc3cccc(Br)c3)cs2)[C@@H](F)[C@@H]1O` [I-101, {(1R,2R,3R,4R)-4-[(5-{[4-(3-bromobenzyl)-2-thienyl]carbonyl}pyrimidin-4-yl)amino]-3-fluoro-2-hydroxycyclopentyl}methyl sulfamate], for which the inhibition at 0.111 µM was determined as 96% and the half-maximal inhibitory concentration (IC50) was below 10 nM. The corresponding values for `NS(=O)(=O)OC[C@H]1C[C@@H](Nc2ncncc2C(=O)c2cc(Cc3ccc(Cl)c(Cl)c3)cs2)C[C@@H]1O` [I-104, {(1R,2S,4R)-4-[(5-{[4-(3,4-Dichlorobenzyl)-2-thienyl]carbonyl}pyrimidin-4-yl)amino]-2-hydroxycyclopentyl)methyl sulfamate] are 97% and below 10 nM.

In the case of `Cc1cn(Cc2csc(C(=O)c3cncnc3N[C@@H]3C[C@H](COS(N)(=O)=O)[C@@H](O)C3)c2)c2ccccc12` [I-105, [(1R,2S,4R)-2-Hydroxy-4-{[5-({4-[(3-methyl-1H-indol-1-yl)methyl]-2-thienyl}carbonyl)pyrimidin-4-yl]amino}cyclopentyl]methyl sulfamate], the inhibition at 0.111 µM came out at 96% and the half-inhibitory concentration (IC50) is below 10 nM. For `NS(=O)(=O)OC[C@H]1C[C@@H](Nc2ncncc2C(=O)c2cc(Cc3cccc(Cl)c3)c(Cl)s2)C[C@@H]1O` [I-107, {(1R,2S,4R)-4-[(5-{[5-chloro-4-(3-chlorobenzyl)-2-thienyl]carbonyl}pyrimidin-4-yl)amino]-2-hydroxycyclopentyl}methyl sulfamate] the same measures were 96% and below 10 nM. Consider `NS(=O)(=O)OC[C@H]1C[C@@H](Nc2ncncc2C(=O)c2cc(CCc3ccccc3)cs2)C[C@@H]1O` [I-108, {(1R,2S,4R)-2-Hydroxy-4-[(5-{[4-(2-phenylethyl)-2-thenyl]carbonyl}pyrimidin-4-yl)amino]cyclopentyl}methyl sulfamate], for which the inhibition at 0.111 µM came out at 96%. `Cc1sc(C(=O)c2cncnc2N[C@@H]2C[C@H](COS(N)(=O)=O)[C@@H](O)C2)cc1Cn1cccn1` [I-109, {(1R,2S,4R)-2-Hydroxy-4-[(5-{[5-methyl-4-(1H-pyrazol-1-ylmethyl)-2-thienyl]carbonyl}pyrimidin-4-yl)amino]cyclopentyl)methyl sulfamate]: the inhibition at 0.111 µM came to 96% and the IC50 is below 10 nM. For `NS(=O)(=O)OC[C@H]1C[C@@H](Nc2ncncc2C(=O)c2cc(Cc3cccc(Cl)c3)c(CC3CCOCC3)s2)C[C@@H]1O` [I-110, {(1R,2S,4R)-4-[(5-{[4-(3-chlorobenzyl)-5-(tetrahydro-2H-pyran-4-ylmethyl)-2-thienyl]carbonyl}pyrimidin-4-yl)amino]-2-hydroxycyclopentyl}methyl sulfamate], the inhibition at 0.111 µM is 98% and the IC50 is below 10 nM. Take `CCc1cccc(Cc2cc(C(=O)c3cncnc3N[C@@H]3C[C@H](COS(N)(=O)=O)[C@@H](O)C3)sc2C)c1` [I-111, {(1R,2S,4R)-4-[(5-{[4-(3-ethylbenzyl)-5-methyl-2-thienyl]carbonyl}pyrimidin-4-yl)amino]-2-hydroxycyclopentyl}methyl sulfamate]: the inhibition at 0.111 µM was found to be 98% and the IC50 was below 10 nM. With `NS(=O)(=O)OC[C@H]1C[C@@H](Nc2ncncc2C(=O)c2cc(Cc3cccc(Br)c3)c(Cl)s2)C[C@@H]1O` [I-112, {(1R,2S,4R)-4-[(5-{[4-(3-bromobenzyl)-5-chloro-2-thienyl]carbonyl}pyrimidin-4-yl)amino]-2-hydroxycyclopentyl}methyl sulfamate], the inhibition at 0.111 µM amounted to 97%. In the case of `NS(=O)(=O)OC[C@H]1C[C@@H](Nc2ncncc2C(=O)c2cc(Cc3cccc(OC(F)F)c3)cs2)C[C@@H]1O` [I-113, [(1R,2S,4R)-4-{[5-({4-[3-(difluoromethoxy)benzyl]-2-thienyl}carbonyl)pyrimidin-4-yl]amino}-2-hydroxycyclopentyl]methyl sulfamate], the inhibition at 0.111 µM came to 97% and the IC50 was below 10 nM. Turning to `NS(=O)(=O)OC[C@H]1C[C@@H](Nc2ncncc2C(=O)c2cc(Cn3ccc4ccccc43)cs2)C[C@@H]1O` [I-114, {(1R,2S,4R)-2-hydroxy-4-[(5-{[4-(1H-indol-1-ylmethyl)-2-thienyl]carbonyl}pyrimidin-4-yl)amino]cyclopentyl}methyl sulfamate], the inhibition at 0.111 µM was found to be 97% and the IC50 is below 10 nM.

Take `NS(=O)(=O)OC[C@H]1C[C@@H](Nc2ncncc2C(=O)c2ccc(Cc3ccccc3)s2)[C@H](O)[C@@H]1O` [I-115, [(1R,2R,3S,4R)-4-({5-[(5-benzyl-2-thienyl)carbonyl]pyrimidin-4-yl}amino)-2,3-dihydroxycyclopentyl]methyl sulfamate]: the inhibition at 0.111 µM is 90%.

As to `NS(=O)(=O)OC[C@H]1C[C@@H](Nc2ncncc2C(=O)c2cc(Cc3cccc(Cl)c3)c(Br)s2)C[C@@H]1O` [I-118, {(1R,2S,4R)-4-[(5-{[5-bromo-4-(3-chlorobenzyl)-2-thienyl]carbonyl}pyrimidin-4-yl)amino]-2-hydroxycyclopentyl}methyl sulfamate], the inhibition at 0.111 µM stood at 97% and the IC50 was below 10 nM.

Turning to `NS(=O)(=O)OC[C@H]1C[C@@H](Nc2ncncc2C(=O)c2cc(Cc3ccc(C(F)(F)F)o3)cs2)C[C@@H]1O` [I-119, [(1R,2S,4R)-2-Hydroxy-4-{(5-[(4-{[5-(trifluoromethyl)-2-furyl]methyl}-2-thienyl)carbonyl]pyrimidin-4-yl}amino)cyclopentyl]methyl sulfamate], the inhibition at 0.111 µM was determined as 96% and the IC50 was below 10 nM. The corresponding values for `NS(=O)(=O)OC[C@H]1C[C@@H](Nc2ncncc2C(=O)c2cc(COc3cccc(Cl)c3)cs2)C[C@@H]1O` [I-120, [(1R,2S,4R)-4-{[5-({4-[(3-chlorophenoxy)methyl]-2-thienyl}carbonyl)pyrimidin-4-yl]amino}-2-hydroxycyclopentyl]methyl sulfamate] are 97% and below 10 nM. Regarding `COc1cccc(Cc2csc(C(=O)c3cncnc3N[C@@H]3C[C@H](COS(N)(=O)=O)[C@@H](O)C3)c2)c1` [I-123, {(1R,2S,4R)-2-hydroxy-4-[(5-{[4-(3-methoxybenzyl)-2-thienyl]carbonyl}pyrimidin-4-yl)amino]cyclopentyl}methyl sulfamate], the inhibition at 0.111 µM turned out to be 96% and the IC50 is below 10 nM. The corresponding values for `N#Cc1ccccc1OCc1csc(C(=O)c2cncnc2N[C@@H]2C[C@H](COS(N)(=O)=O)[C@@H](O)C2)c1` [I-124, [(1R,2S,4R)-4-{[5-({4-[(2-cyanophenoxy)methyl]-2-thienyl}carbonyl)pyrimidin-4-yl]amino}-2-hydroxycyclopentyl]methyl sulfamate] are 97% and below 10 nM. For `NS(=O)(=O)OC[C@H]1C[C@@H](Nc2ncncc2C(=O)c2cc(Cn3ccc4ccc(Cl)cc43)cs2)C[C@@H]1O` [I-125, [(1R,2S,4R)-4-{[5-({4-[(6-chloro-1H-indol-1-yl)methyl]-2-thienyl}carbonyl)pyrimidin-4-yl]amino}-2-hydroxycyclopentyl]methyl sulfamate] the same measures were 97% and below 10 nM. `COc1ccc2c(c1)N(Cc1cc(C(=O)c3cncnc3N[C@@H]3C[C@H](COS(N)(=O)=O)[C@@H](O)C3)sc1C)CC2` [I-126, [(1R,2S,4R)-2-hydroxy-4-{[5-({4-[(6-methoxy-2,3-dihydro-1H-indol-1-yl)methyl]-5-methyl-2-thienyl}carbonyl)pyrimidin-4-yl]amino}cyclopentyl]methyl sulfamate]: the inhibition at 0.111 µM worked out at 98% and the half-maximal inhibitory concentration (IC50) was below 10 nM. For the molecule `NS(=O)(=O)OC[C@H]1C[C@@H](Nc2ncncc2C(=O)c2ccc(Cc3ccccc3)o2)C[C@@H]1O` [I-127, [(1R,2S,4R)-4-{[5-(5-benzyl-2-furoyl)pyrimidin-4-yl]amino}-2-hydroxycyclopentyl]methyl sulfamate], the inhibition at 0.111 µM was determined as 95% and the IC50 was below 10 nM. `Cc1sc(C(=O)c2cncnc2N[C@@H]2C[C@H](COS(N)(=O)=O)[C@@H](O)C2)cc1CN1CCc2ccc(C#N)cc21` [I-128, [(1R,2S,4R)-4-{[5-({4-[(6-cyano-2,3-dihydro-1H-indol-1-yl)methyl]-5-methyl-2-thienyl}carbonyl)pyrimidin-4-yl]amino}-2-hydroxycyclopentyl]methyl sulfamate]: the inhibition at 0.111 µM worked out at 95% and the concentration for half-maximal inhibition (IC50) is below 10 nM. On to `NS(=O)(=O)OC[C@H]1C[C@@H](Nc2ncncc2C(=O)c2cc(COc3ccccc3Cl)cs2)C[C@@H]1O` [I-129, [(1R,2S,4R)-4-{[5-({4-[(2-chlorophenoxy)methyl]-2-thienyl}carbonyl)pyrimidin-4-yl]amino}-2-hydroxycyclopentyl]methyl sulfamate], for which the inhibition at 0.111 µM amounted to 95% and the IC50 was below 10 nM.
